Data as given in patent US6849653B2, “Substituted pyrazolyl benzenesulfamide compounds for the treatment of inflammation” (Pharmacia Corporation, priority 2001, dated 2005).
Structures can show the parent of a compound that is named as a salt.

Target: T1, IKK2 (IKKβ), rhIKK2 homodimer (Homo sapiens, UniProt O14920)
T1 construct: made in house; host or cells: insect cells (baculovirus; SF9)
T1 sequence (O14920 1-756): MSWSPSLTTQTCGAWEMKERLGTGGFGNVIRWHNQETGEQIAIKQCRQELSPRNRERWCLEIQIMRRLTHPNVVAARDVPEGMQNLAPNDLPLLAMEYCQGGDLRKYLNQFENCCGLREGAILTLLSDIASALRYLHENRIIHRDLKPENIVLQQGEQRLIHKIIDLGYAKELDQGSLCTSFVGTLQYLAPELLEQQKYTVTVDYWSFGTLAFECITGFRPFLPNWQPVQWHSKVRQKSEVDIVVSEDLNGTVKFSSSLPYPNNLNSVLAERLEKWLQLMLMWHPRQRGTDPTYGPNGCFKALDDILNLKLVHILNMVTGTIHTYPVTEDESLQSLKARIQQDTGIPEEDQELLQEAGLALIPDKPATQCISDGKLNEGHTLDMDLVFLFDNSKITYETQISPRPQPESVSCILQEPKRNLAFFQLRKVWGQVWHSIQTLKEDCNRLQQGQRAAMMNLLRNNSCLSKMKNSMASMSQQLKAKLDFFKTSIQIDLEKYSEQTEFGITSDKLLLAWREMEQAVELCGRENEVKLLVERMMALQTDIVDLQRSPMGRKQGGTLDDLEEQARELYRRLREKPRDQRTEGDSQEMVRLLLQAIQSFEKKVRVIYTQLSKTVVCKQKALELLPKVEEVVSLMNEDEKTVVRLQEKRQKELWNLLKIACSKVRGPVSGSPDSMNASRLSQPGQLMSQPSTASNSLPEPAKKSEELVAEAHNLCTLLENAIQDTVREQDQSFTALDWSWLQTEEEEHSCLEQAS
Assay: IKKβ (IKK2) Resin Enzyme Assay
Format: biochemical
Conditions: Table 2; values given as bins; read-out: IKK2 Resin IC 50
Excerpt: cDNAs of human IKK1 and IKK2 were amplified by reverse transcriptase-polymerase chain reaction from human placental RNA (Clonetech). hIKK1 was subcloned into pFastBac HTa (Life Technologies) and expressed as N-terminal His6-tagged fusion protein. The hIKK2 cDNA was amplified using a reverse oligonucleotide primer which incorporated the peptide sequence for a FLAG-epitope tag at the C-terminus of the IKK2 coding region (DYKDDDDKD). The hIKK2:FLAG cDNA was subcloned into the baculovirus vector pFastBac. The rhIKK2 ([…]) mutant was constructed in the same vector used for wild type rhIKK2 using a QuikChange™ mutagenesis kit (Stratagene). Viral stocks of each construct were used to infect insect cells grown in 40L suspension culture. […] Cell lysates were stored at −80° C. until purification of the recombinant proteins was undertaken as described below.
Isolation of rhIKK2 Homodimer
A 10 liter culture of baculovirus-expressing IKK2 tagged with FLAG peptide was centrifuged and the cell pellet (MOI=0.1 and I=72 hrs) was re-suspended in buffer A. These cells were microfluidized, and centrifuged at 100,000×g for 45 min. Supernatant was passed over a G-25 column equilibrated with Buffer A. Protein peak was collected and incubated with anti-FLAG affinity resin on a rotator overnight in buffer B. The resin was washed in batch with 10-15 bed volumes of buffer C. Washed resin was poured into a column and rhIKK2 homodimer was eluted using 5 bed volumes of buffer B containing FLAG peptide. 5 mM DTT, 0.1% NP-40 and BSA (concentrated to 0.1% in final amount) was added to the eluted enzyme before concentrating in using an Amicon membrane with a molecular weight cut-off of 30 kDa. Enzyme was aliquoted and stored at −80° C.
IKKβ kinase activity was measured using a biotinylated IκBα peptide (Gly-Leu-Lys-Lys-Glu-Arg-Leu-Leu-Asp-Asp-Arg-His-Asp-Ser32-Gly-Leu-Asp-Ser36-Met-Lys-Asp-Glu-Glu) (American Peptide Co.). […] contained 5 μM biotinylated IκBα peptide, 0.1 μCi/reaction [γ-^33P] ATP (Amersham) (about 1×10^5 cpm), 1 μM ATP (Sigma), 1 mM DTT (Sigma), 2 mM MgCl2 (Sigma), 2 mM MnCl2 (Sigma), 10 mM NaF (Sigma), 25 mM Hepes (Sigma) buffer, pH 7.6 and 20 μl enzyme solution and […] inhibitor in a final volume of 50 μl. After incubation at 25° C. for 30 min, 150 μl resin (Dowex anion-exchange resin AG1X8 200-400 mesh) in 900 mM formate, pH 3.0 was added to each well to stop the reaction. Resin was allowed to settle for one hour and 50 ul of supernatant was removed to a Micolite-2 flat bottom plate (Dynex). 150 μl of scintillation fluid (Microscint 40) (Packard) was added to each well. Incorporation of [γ-^33P] ATP was measured using a Top-Count NXT (Packard).

Row | IC50 | Structure (SMILES)
1 | ≤ 1000 nM | CS(=O)(=O)c1ccc(-n2nc(C(N)=O)c3ccc4ccc(NC(=O)c5cccnc5Cl)cc4c32)cc1 [Example 41, 8-{[(2-chloropyridin-3-yl)carbonyl]amino}-1-[4-(methylsulfonyl)phenyl]-1H-benzo[g]indazole-3-carboxamide]
2 | ≤ 1000 nM | CS(=O)(=O)c1ccc(-n2nc(C(N)=O)c3ccc4ccc(NC(=O)c5ccccc5Cl)cc4c32)cc1 [Example 37, 8-[(2-chlorobenzoyl)amino]-1-[4-(methylsulfonyl)phenyl]-1H-benzo[g]indazole-3-carboxamide]
3 | ≤ 1000 nM | CS(=O)(=O)c1ccc(-n2nc(C(N)=O)c3ccc4ccc(NC(=O)c5cccc(Cl)c5Cl)cc4c32)cc1 [Example 40, 8-[(2,3-dichlorobenzoyl)amino]-1-[4-(methylsulfonyl)phenyl]-1H-benzo[g]indazole-3-carboxamide]
4 | 1000 to 10000 nM | CS(=O)(=O)c1ccc(-n2nc(C(N)=O)c3ccc4ccc(NC(=O)c5ccccc5F)cc4c32)cc1 [Example 42, 8-[(2-fluorobenzoyl)amino]-1-[4-(methylsulfonyl)phenyl]-1H-benzo[g]indazole-3-carboxamide]
5 | 1000 to 10000 nM | CS(=O)(=O)c1ccc(-n2nc(C(N)=O)c3ccc4ccc(NC(=O)c5ccccc5C(F)(F)F)cc4c32)cc1 [Example 39, 1-[4-(methylsulfonyl)phenyl]-8-{[2-(trifluoromethyl)benzoyl]amino}-1H-benzo[g]indazole-3-carboxamide]

Same assay, conditions: Table 3; read-out: IKK2 Resin IC 50

Row | IC50 | Structure (SMILES)
6 | 1000 to 10000 nM | NC(=O)c1nn(-c2ccc(F)cc2)c2c1ccc1ccc(NC(=O)c3ccccc3Cl)cc12 [Example 47, 8-[(2-chlorobenzoyl)amino]-1-(4-fluorophenyl)-1H-benzo[g]indazole-3-carboxamide]
7 | 1000 to 10000 nM | NC(=O)c1nn(-c2ccc(F)cc2)c2c1cc(-c1cccnc1)c1ccc(NC(=O)c3ccncc3Cl)cc12 [Example 45, 8-[(3-chloroisonicotinoyl(amino]-1-(4-fluorophenyl)-5-pyridin-3-yl-1H-benzo[g]indazole-3-carboxamidedihydrochloride]
8 | ≤ 1000 nM | CS(=O)(=O)Nc1ccc2ccc3c(C(N)=O)nn(-c4ccc(F)cc4)c3c2c1 [Example 50, 1-(4-fluorophenyl)-8-[(methylsulfonyl)amino]-1H-benzo[g]indazole-3-carboxamide]
9 | ≤ 1000 nM | NC(=O)c1nn(-c2ccc(F)cc2)c2c1ccc1ccc(NC(=O)c3ccncc3Cl)cc12 [Example 43, 8-[(3-chloroisonicotinoyl)amino]-1-(4-fluorophenyl)-1H-benzo[g]indazole-3-carboxamide]
10 | ≤ 1000 nM | NC(=O)c1nn(-c2ccc(F)cc2)c2c1cc(Br)c1ccc(NC(=O)c3ccncc3Cl)cc12 [Example 44]

Same assay, conditions: Table 4; values given as bins; read-out: IKK2 Resin IC 50

Row | IC50 | Structure (SMILES)
11 | ≤ 1000 nM | NC(=O)c1nn(-c2ccc3c(c2)OCO3)c2c1ccc1ccc(NC(=O)c3cccnc3Cl)cc12 [Example 55, 1-(1,3-benzodioxol-5-yl)-8-{[(2-chloropyridin-3-yl)carbonyl]amino}-1H-benzo[g]indazole-3-carboxamide]
12 | ≤ 1000 nM | NC(=O)c1nn(-c2ccc3c(c2)OCO3)c2c1ccc1ccc(NC(=O)c3ccncc3Cl)cc12 [Example 58, 1-(1,3-benzodioxol-5-yl)-8-[(3-chloroisonicotinoyl)amino]-1H-benzo[g]indazole-3-carboxamide]
13 | 1000 to 10000 nM | NC(=O)c1nn(-c2ccc3c(c2)OCO3)c2c1ccc1ccc(N)cc12 [Example 56, 8-amino-1-(1,3-benzodioxol-5-yl)-1H-benzo[g]indazole-3-carboxamide]
